Results taken from patent US20260285850A1, “SUBSTITUTED OXAZOLIDINONES AND IMIDAZOLINONES AS HERBICIDES” (FMC CORPORATION, priority 2023, published 2026).

Tests used:
Format in all cases: in vivo
[1] = system: wheat (Triticum aestivum); experiment: Test A preemergence soil spray, visual injury rating 0-100; conditions: 10 days, 0 = no effect, 100 = complete control
Method in brief: (§1)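 Preemergence directed soil spray or postemergence spray (2-10 cm, 1-2 leaf); loam/sand mix; compound in non-phytotoxic solvent + surfactant. Greenhouse, 10 d. Visual injury vs untreated, 0 = none, 100 = complete control.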

[2] = system: blackgrass (Alopecurus myosuroides); experiment: as above; conditions: 10 days, 0 = no effect, 100 = complete control
Method in brief: as §1

[3] = system: ragweed (common ragweed, Ambrosia artemisiifolia); experiment: as above; conditions: 10 days, 0 = no effect, 100 = complete control
Method in brief: as §1

soybean (Glycine max) [4] = experiment: as above; conditions: 10 days, 0 = no effect, 100 = complete control
Method in brief: as §1

[5] = system: palmer (palmer amaranth, palmer pigweed, Amaranthus palmeri); experiment: as above; conditions: 10 days, 0 = no effect, 100 = complete control
Method in brief: as §1

[6] = system: oat, wild (wild oat, Avena fatua); experiment: as above; conditions: 10 days, 0 = no effect, 100 = complete control
Method in brief: as §1

[7] = system: barnyardgrass (Echinochloa crus-galli); experiment: as above; conditions: 10 days, 0 = no effect, 100 = complete control
Method in brief: as §1

kochia (Bassia scoparia) [8] = experiment: as above; conditions: 10 days, 0 = no effect, 100 = complete control
Method in brief: as §1

[9] = system: ryegrass, Italian (italian ryegrass, Lolium multiflorum); experiment: as above; conditions: 10 days, 0 = no effect, 100 = complete control
Method in brief: as §1

corn (Zea mays) [10] = experiment: as above; conditions: 10 days, 0 = no effect, 100 = complete control
Method in brief: as §1

[11] = system: green foxtail (Setaria viridis); experiment: as above; conditions: 10 days, 0 = no effect, 100 = complete control
Method in brief: as §1

rice (Oryza sativa) = experiment: Test B flooded paddy test, visual plant response rating 0-100; conditions: 250 g ai/ha, Flood, applied to paddy water, evaluated after 13 days
Method in brief: (§2)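 Visual evaluation after 13 days. Water-applied treatment, 3 cm flood depth held constant, plants at 2-leaf stage at treatment.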

[12] = system: ducksalad (Heteranthera limosa); experiment: as above; conditions: 250 g ai/ha, Flood, applied to paddy water, evaluated after 13 days
Method in brief: as §2

[13] = system: barnyardgrass (Echinochloa crusgalli); experiment: as above; conditions: 250 g ai/ha, Flood, applied to paddy water, evaluated after 13 days
Method in brief: as §2

[14] = system: sedge, umbrella (small-flower umbrella sedge, Cyperus difformis); experiment: as above; conditions: 250 g ai/ha, Flood, applied to paddy water, evaluated after 13 days
Method in brief: as §2

[15] = system: wheat (Triticum aestivum); experiment: Test A postemergence application, visual injury rating 0-100; conditions: 10 days
Method in brief: as §1

[16] = system: blackgrass (Alopecurus myosuroides); experiment: as above; conditions: 10 days
Method in brief: as §1

[17] = system: ragweed (common ragweed, Ambrosia artemisiifolia); experiment: as above; conditions: 10 days
Method in brief: as §1

soybean (Glycine max) [18] = experiment: as above; conditions: 10 days
Method in brief: as §1

[19] = system: palmer (palmer amaranth, palmer pigweed, Amaranthus palmeri); experiment: as above; conditions: 10 days
Method in brief: as §1

[20] = system: oat, wild (wild oat, Avena fatua); experiment: as above; conditions: 10 days
Method in brief: as §1

[21] = system: horseweed (Erigeron canadensis); experiment: as above; conditions: 10 days
Method in brief: as §1

[22] = system: barnyardgrass (Echinochloa crus-galli); experiment: as above; conditions: 10 days
Method in brief: as §1

kochia (Bassia scoparia) [23] = experiment: as above; conditions: 10 days
Method in brief: as §1

[24] = system: ryegrass, Italian (italian ryegrass, Lolium multiflorum); experiment: as above; conditions: 10 days
Method in brief: as §1

corn (Zea mays) [25] = experiment: as above; conditions: 10 days
Method in brief: as §1

[26] = system: galium (catchweed bedstraw, Galium aparine); experiment: as above; conditions: 10 days
Method in brief: as §1

[27] = system: green foxtail (Setaria viridis); experiment: as above; conditions: 10 days
Method in brief: as §1

[28] = 31 g ai/ha, postemergence, 0 = no effect, 100 = complete control
[29] = Postemergence, 125 g ai/ha, 0 is no effect, 100 is complete control

CC1(C(=O)NC2CCC(C(=O)NS(C)(=O)=O)C2)CN(c2cc(F)cc(F)c2)C(=O)O1 (stereo not shown) [Compound 13] was tested, and the “Wheat plant response rating (0-100)” value ([1]; 31 g ai/ha) was 0, the “Wheat plant response rating (0 to 100 scale)” value ([1]; 125 g ai/ha) was 80 and the “Blackgrass plant response rating (0-100)” value ([2]; 31 g ai/ha) was 20. The “Blackgrass plant response rating (0 to 100 scale)” value ([2]; 125 g ai/ha) was 50, the “Ragweed plant response rating (0-100)” value ([3]; 31 g ai/ha) was 40 and the “Ragweed plant response rating (0 to 100 scale)” value ([3]; 125 g ai/ha) was 20. The “Soybean plant response rating (0-100)” value (soybean (Glycine max) [4]; 31 g ai/ha) was 0, the “Soybean plant response rating (0 to 100 scale)” value (soybean (Glycine max) [4]; 125 g ai/ha) was 0 and the “Amaranth, Palmer plant response rating (0-100)” value ([5]; 31 g ai/ha) was 0. For the same compound, the “Amaranth, Palmer plant response rating (0 to 100 scale)” value ([5]; 125 g ai/ha) was 0, the “Oat, Wild plant response rating (0-100)” value ([6]; 31 g ai/ha) was 0 and the “Oat, Wild plant response rating (0 to 100 scale)” value ([6]; 125 g ai/ha) was 20. The “Barnyardgrass plant response rating (0-100)” value ([7]; 31 g ai/ha) was 0, the “Barnyardgrass plant response rating (0 to 100 scale)” value ([7]; 125 g ai/ha) was 20 and the “Kochia plant response rating (0-100)” value (kochia (Bassia scoparia) [8]; 31 g ai/ha) was 0. The “Kochia plant response rating (0 to 100 scale)” value (kochia (Bassia scoparia) [8]; 125 g ai/ha) was 0, the “Ryegrass, Italian plant response rating (0-100)” value ([9]; 31 g ai/ha) was 20 and the “Ryegrass, Italian plant response rating (0 to 100 scale)” value ([9]; 125 g ai/ha) was 90. The “Corn plant response rating (0-100)” value (corn (Zea mays) [10]; 31 g ai/ha) was 0, the “Corn plant response rating (0 to 100 scale)” value (corn (Zea mays) [10]; 125 g ai/ha) was 0 and the “Foxtail, Green plant response rating (0-100)” value ([11]; 31 g ai/ha) was 0. The “Foxtail, Green plant response rating (0 to 100 scale)” value ([11]; 125 g ai/ha) was 50, the “Plant response rating, Rice (0 to 100 scale, 0 is no effect and 100 is complete control)” value (rice (Oryza sativa)) was 0 and the “Plant response rating, Ducksalad (0 to 100 scale, 0 is no effect and 100 is complete control)” value [12] was 0. The “Plant response rating, Barnyardgrass (0 to 100 scale, 0 is no effect and 100 is complete control)” value [13] was 0, the “Plant response rating, Sedge, Umbrella (0 to 100 scale, 0 is no effect and 100 is complete control)” value [14] was 0 and the “Wheat plant response rating (0-100)” value [15, 28] was 50. For the same compound, the “Wheat plant response rating (0 to 100 scale)” value [15, 29] was 70, the “Blackgrass plant response rating (0-100)” value [16, 28] was 10 and the “Blackgrass plant response rating (0 to 100 scale)” value [16, 29] was 60. For the same compound, the “Ragweed plant response rating (0-100)” value [17, 28] was 0, the “Ragweed plant response rating (0 to 100 scale)” value [17, 29] was 20 and the “Soybean plant response rating (0-100)” value (soybean (Glycine max) [18]; [28]) was 0. The “Soybean plant response rating (0 to 100 scale)” value (soybean (Glycine max) [18]; [29]) was 50, the “Amaranth, Palmer plant response rating (0-100)” value [19, 28] was 10 and the “Amaranth, Palmer / Pigweed, Palmer plant response rating (0 to 100 scale)” value [19, 29] was 90. For the same compound, the “Oat, Wild plant response rating (0-100)” value [20, 28] was 10, the “Oat, Wild plant response rating (0 to 100 scale)” value [20, 29] was 50 and the “Horseweed plant response rating (0-100)” value [21, 28] was 0. The “Horseweed plant response rating (0 to 100 scale)” value [21, 29] was 20, the “Barnyardgrass plant response rating (0-100)” value [22, 28] was 10 and the “Barnyardgrass plant response rating (0 to 100 scale)” value [22, 29] was 70. The “Kochia plant response rating (0-100)” value (kochia (Bassia scoparia) [23]; [28]) was 0, the “Kochia plant response rating (0 to 100 scale)” value (kochia (Bassia scoparia) [23]; [29]) was 50 and the “Ryegrass, Italian plant response rating (0-100)” value [24, 28] was 20. The “Ryegrass, Italian plant response rating (0 to 100 scale)” value [24, 29] was 70, the “Corn plant response rating (0-100)” value (corn (Zea mays) [25]; [28]) was 0 and the “Corn plant response rating (0 to 100 scale)” value (corn (Zea mays) [25]; [29]) was 30. The “Galium plant response rating (0-100)” value [26, 28] was 0, the “Galium plant response rating (0 to 100 scale)” value [26, 29] was 70 and the “Foxtail, Green plant response rating (0-100)” value [27, 28] was 0. The “Foxtail, Green plant response rating (0 to 100 scale)” value [27, 29] was 50.
